From US12590125B2, “Peptide inhibitors for the inhibition of HIV capsid” (THE CURATORS OF THE UNIVERSITY OF MISSOURI, priority 2019, dated 2026)
Read-outs that look alike come from different tables or passages of the source. Residues, ends and D or L forms follow the SMILES beside them.

What was measured:
HIV [1] = settings: MT-4 cells; read-out: EC50, anti-HIV activity; cited from earlier work
HIV-1 = settings: PBMCs, 23 HIV-1 clinical isolates from different subtypes, cited from earlier work
CA-hexamers = settings: read-out: binding affinity of CA-hexamers with PF74 by ITC; isothermal calorimetry, Bhattacharya et al., 2014; cited from earlier work
HIV [2] = settings: MT-2 cells; cited from earlier work
HIV-1 CA-hexamers = HIV-1 CA-hexamers (Human immunodeficiency virus type 1 group M subtype B, UniProt P12493); assay: biochemical; assay type: binding
Description: During the MST experiment, a temperature gradient is induced by an infrared laser. The directed movement of molecules through the temperature gradient is detected and quantified using covalently attached fluorophore.
Fluorescent labeling of CA with Alexa Fluor 647 analog NT647 was performed according to the manufacturer's instructions (MO-L004 Monolith Protein Labeling Kit; NanoTemper Technologies GmbH, Munich, Germany). 20 μM protein was incubated overnight with 3 molar excess of dye at room temperature in a conjugation buffer provided with the labeling kit. The unreacted dye was removed by filtration through a gravity flow column provided with the kit. The elution fractions were collected in 2×MST buffer (100 mM MOPS, pH 7.0, 200 mM NaCl, and 0.2% pluronic F-127). Fluorescence intensity of each fraction was evaluated by MST (Monolith NT.115, NanoTemper Technologies GmbH, Munich, Germany), and fractions containing labelled protein were pooled. Protein concentration was determined by NANODROP (Thermo Scientific, Waltham, MA) spectrophotometer. Aliquots were stored at −80° C. until use. […] The data were analyzed using MO. Affinity software (version 2.3) (NanoTempet Technologies, CA) by fitting the data point to a quadratic equation (Equation 1) and plotting by PRISM (Version 6.0) (GraphPad Inc. La Jolla, CA).

CC(C)(C#Cc1ccc(-c2ccc(Cl)c3c(NS(C)(=O)=O)nn(CC(F)(F)F)c23)c([C@H](Cc2cc(F)cc(F)c2)NC(=O)Cn2nc(C(F)(F)F)c3c2C(F)(F)[C@@H]2C[C@H]32)n1)S(C)(=O)=O [GS-6207]
EC50 (HIV [1]): 0.1 nM
EC50 (HIV-1; read-out: mean EC50): 0.05 nM
EC50 (HIV-1; read-out: range of EC50 over clinical isolates): 0.02 to 0.16 nM

Cc1[nH]c2ccccc2c1CC(=O)N[C@@H](Cc1ccccc1)C(=O)N(C)c1ccccc1 [PF74]
Kd (CA-hexamers): 262 nM
EC50 (HIV [2]): 570 nM

CC(C)[C@@H]1NC(=O)CNC(=O)[C@H](CO)NC(=O)CNC(=O)[C@@H]2CCCN2C(=O)[C@H](Cc2ccccc2)NC(=O)[C@H](CC(N)=O)NC(=O)[C@H](C(C)C)NC(=O)[C@@H]2CCCN2C(=O)CNC(=O)[C@H](Cc2ccccc2)NC(=O)[C@H]([C@@H](C)O)NC(=O)[C@H](Cc2ccccc2)NC1=O [Pep-2-cyclic] (cyclo(FGPVNFPGSGVFT))
Kd (HIV-1 CA-hexamers): 32 ± 3 nM
fold better CA binding affinity than PF74 (HIV-1 CA-hexamers; Pep-2-cyclic vs PF74, MST): ~7 fold
